Laboratory results: patent US20240109865A1, “INDAZOLE COMPOUNDS AS KINASE INHIBITORS” (TYRA BIOSCIENCES, INC., priority 2020, published 2024)

Experiments:
FGFR4 = FGFR4 (Homo sapiens (Human), UniProt P22455); assay: Kinase assay, binding constants (Kd), kinase-tagged T7 phage, qPCR
Summary of the method: (§1)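 Competition binding: kinase-tagged T7 phage lysates mixed with immobilized biotinylated ligand on streptavidin beads plus compound (11-point 3-fold dilution series, 0.9% DMSO final). Bound kinase eluted with free ligand and quantified by qPCR. Kd from Hill equation fit, slope fixed at −1.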

FGFR1 = FGFR1 (Homo sapiens (Human), UniProt P11362); assay: as above
Summary of the method: as §1

FGFR3 = FGFR3 (Homo sapiens (Human), UniProt P22607); assay: as above
Summary of the method: as §1

FGFR2 = FGFR2 (Homo sapiens (Human), UniProt P21802); assay: as above
Summary of the method: as §1

FGFR3 (V555M) = FGFR3 (V555M) (Homo sapiens (Human), UniProt P22607, V555M); assay: as above; conditions: V555M mutant
Summary of the method: as §1

[1] = target: FGFR3-BAIAP2L1 Ba/F3 cells (Homo sapiens, UniProt P22607); assay: Ba/F3 cell viability assay (CellTiter-Glo 2.0), FGFR3-BAIAP2L1 Ba/F3; type: cell-based; conditions: for Ba/F3 FGFR1/FGFR3 Selectivity: FGFR3 > FGFR1 selectivity ratio in Ba/F3 FGFR fusion cell based assays; for IC50: read-out: Ba/F3 Cells FGFR3 (IC50 nM), FGFR3-BAIAP2L1 Ba/F3 cells, 48 hours, Cell Titer Glo 2.0
Text: (§2) Experimental Purpose: Recombinant kinase fusions are transduced into parental Ba/F3, which becomes dependent upon this constitutive kinase activity for IL3-independent survival. Inhibition of kinase activity leads to cell death, which is monitored using CellTiter-Glo® 2.0 (Promega) which measures intracellular ATP concentration that in turn serves as a marker for viability. FGFR1-BCR Ba/F3 and FGFR3-BAIAP2L1 Ba/F3 were obtained from Advanced Cellular Dynamics (Seattle, WA)
(§3) Cell Viability Assay Procedure: Cell Titer-Glo® 2.0 Luminescent cell viability assay reagent was purchased from Promega (Madison, WI). FGFR1-BCR Ba/F3 and FGFR3-BAIAP2L1 Ba/F3 cells were cultured in RPMI1640 media supplemented with 10% fetal bovine serum. Cultures were maintained at 37° C. in a humidified atmosphere of 5% C02 and 95% air.
(§4) Cells were plated in 96-well clear bottom/white plates (Corning #3903) at 10,000 cells/well in 100 μl of media, incubated overnight. The next day, test compound DMSO stock solutions were made at 10 mM and 2 μM final concentration. Compounds were then added to cells in a 9-dose, 10-fold dilution series starting at 30 μM with an HP 300e Digital Dispenser (each dose was applied in triplicate). DMSO was backfilled to each well up to 301 nL total volume of test compound+DMSO, and a total of 301 nL DMSO was added to a control/no test compound well in triplicate. The cells in cell culture plates were incubated with the compounds at 37° C. and 5% C02 for 48 hours. Then 50 μl of Cell Titer Glo 2.0 reagent was added to each well of the cell culture plates. The contents were covered from light and mixed on an orbital shaker at room temperature for 10 min. Luminescence was recorded by a Synergy H1 Microplate Reader (Biotek, Winooski, VT). Cells were assessed as a percentage of DMSO only treated control cells. Curves were plotted and IC50 values were calculated using the GraphPad Prism 8 program based on a sigmoidal dose-response equation (4 parameter).

FGFR1-BCR Ba/F3 cells = FGFR1-BCR Ba/F3 cells (Homo sapiens, UniProt P11362); assay: Ba/F3 cell viability assay (CellTiter-Glo 2.0), FGFR1-BCR Ba/F3; type: cell-based; conditions: read-out: Ba/F3 Cells FGFR1 (IC50 nM), 48 hours, Cell Titer Glo 2.0
Text: as §2, §3, §4

Sequence of FGFR1-BCR Ba/F3 cells (P11362 22-822 limits assumed, change not shown): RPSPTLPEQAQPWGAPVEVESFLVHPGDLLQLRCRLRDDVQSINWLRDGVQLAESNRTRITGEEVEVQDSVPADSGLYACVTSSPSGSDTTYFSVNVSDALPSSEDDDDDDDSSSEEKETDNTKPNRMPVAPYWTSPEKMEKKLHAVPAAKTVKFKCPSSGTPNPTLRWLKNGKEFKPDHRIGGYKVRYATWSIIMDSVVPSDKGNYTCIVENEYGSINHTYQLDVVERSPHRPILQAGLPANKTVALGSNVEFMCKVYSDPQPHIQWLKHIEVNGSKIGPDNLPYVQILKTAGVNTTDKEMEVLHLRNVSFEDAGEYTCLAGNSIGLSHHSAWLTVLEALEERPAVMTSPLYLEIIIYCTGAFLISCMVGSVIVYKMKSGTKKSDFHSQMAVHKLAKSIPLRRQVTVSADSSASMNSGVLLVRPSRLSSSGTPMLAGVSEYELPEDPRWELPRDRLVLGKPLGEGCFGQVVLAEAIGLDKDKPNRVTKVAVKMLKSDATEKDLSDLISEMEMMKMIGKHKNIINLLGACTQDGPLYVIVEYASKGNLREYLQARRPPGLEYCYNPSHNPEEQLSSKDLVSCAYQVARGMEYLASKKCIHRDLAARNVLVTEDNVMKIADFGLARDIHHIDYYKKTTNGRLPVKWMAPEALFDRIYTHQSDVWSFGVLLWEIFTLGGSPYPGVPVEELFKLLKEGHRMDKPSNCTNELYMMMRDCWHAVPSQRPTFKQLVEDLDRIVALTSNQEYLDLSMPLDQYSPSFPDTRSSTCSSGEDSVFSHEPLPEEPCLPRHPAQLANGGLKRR
Sequence of FGFR1 (P11362 22-822): as the sequence (P11362 22-822 limits assumed, change not shown) above
Sequence of FGFR4 (P22455 22-802): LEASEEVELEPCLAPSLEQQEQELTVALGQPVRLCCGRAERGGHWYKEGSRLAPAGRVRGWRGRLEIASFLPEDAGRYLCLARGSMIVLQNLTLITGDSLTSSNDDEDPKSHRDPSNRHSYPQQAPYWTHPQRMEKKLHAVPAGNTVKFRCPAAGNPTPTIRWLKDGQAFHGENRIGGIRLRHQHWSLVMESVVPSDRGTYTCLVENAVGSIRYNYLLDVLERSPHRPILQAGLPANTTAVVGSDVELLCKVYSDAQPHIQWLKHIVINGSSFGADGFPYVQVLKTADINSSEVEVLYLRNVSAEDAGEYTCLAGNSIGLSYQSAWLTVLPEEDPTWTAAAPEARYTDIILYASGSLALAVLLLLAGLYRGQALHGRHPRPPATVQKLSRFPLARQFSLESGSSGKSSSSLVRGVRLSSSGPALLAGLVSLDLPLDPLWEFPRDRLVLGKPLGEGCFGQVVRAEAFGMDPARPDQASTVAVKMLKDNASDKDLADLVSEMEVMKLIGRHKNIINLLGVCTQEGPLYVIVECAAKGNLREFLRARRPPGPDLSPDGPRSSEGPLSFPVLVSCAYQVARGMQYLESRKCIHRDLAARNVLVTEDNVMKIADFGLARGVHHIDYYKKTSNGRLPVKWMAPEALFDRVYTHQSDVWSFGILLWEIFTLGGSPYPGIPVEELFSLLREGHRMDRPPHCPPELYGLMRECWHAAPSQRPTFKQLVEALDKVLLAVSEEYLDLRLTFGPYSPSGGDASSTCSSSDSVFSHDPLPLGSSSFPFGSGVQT
Sequence of FGFR2 (P21802 22-821): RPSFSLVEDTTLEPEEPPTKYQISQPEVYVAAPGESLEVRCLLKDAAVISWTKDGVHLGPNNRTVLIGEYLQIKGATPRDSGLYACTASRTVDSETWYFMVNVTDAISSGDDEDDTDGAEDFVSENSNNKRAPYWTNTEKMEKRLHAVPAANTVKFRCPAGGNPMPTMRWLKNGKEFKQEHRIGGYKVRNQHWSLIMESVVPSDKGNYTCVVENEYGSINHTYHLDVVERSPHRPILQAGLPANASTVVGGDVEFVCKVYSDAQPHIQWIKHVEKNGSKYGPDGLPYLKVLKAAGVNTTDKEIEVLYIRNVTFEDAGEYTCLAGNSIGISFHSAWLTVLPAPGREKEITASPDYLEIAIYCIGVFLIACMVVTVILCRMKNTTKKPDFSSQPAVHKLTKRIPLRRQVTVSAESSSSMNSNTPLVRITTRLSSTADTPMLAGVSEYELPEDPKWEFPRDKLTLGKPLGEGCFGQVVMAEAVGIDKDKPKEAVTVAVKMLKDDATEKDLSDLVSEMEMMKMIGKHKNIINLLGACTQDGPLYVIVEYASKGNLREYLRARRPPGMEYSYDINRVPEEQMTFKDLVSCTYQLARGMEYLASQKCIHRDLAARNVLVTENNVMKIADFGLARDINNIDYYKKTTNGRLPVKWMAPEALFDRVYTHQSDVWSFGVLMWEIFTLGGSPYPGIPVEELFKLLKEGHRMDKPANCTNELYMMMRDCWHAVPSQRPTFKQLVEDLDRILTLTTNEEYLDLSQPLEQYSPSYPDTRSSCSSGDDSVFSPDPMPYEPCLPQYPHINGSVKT
Sequence of FGFR3 (P22607 23-806): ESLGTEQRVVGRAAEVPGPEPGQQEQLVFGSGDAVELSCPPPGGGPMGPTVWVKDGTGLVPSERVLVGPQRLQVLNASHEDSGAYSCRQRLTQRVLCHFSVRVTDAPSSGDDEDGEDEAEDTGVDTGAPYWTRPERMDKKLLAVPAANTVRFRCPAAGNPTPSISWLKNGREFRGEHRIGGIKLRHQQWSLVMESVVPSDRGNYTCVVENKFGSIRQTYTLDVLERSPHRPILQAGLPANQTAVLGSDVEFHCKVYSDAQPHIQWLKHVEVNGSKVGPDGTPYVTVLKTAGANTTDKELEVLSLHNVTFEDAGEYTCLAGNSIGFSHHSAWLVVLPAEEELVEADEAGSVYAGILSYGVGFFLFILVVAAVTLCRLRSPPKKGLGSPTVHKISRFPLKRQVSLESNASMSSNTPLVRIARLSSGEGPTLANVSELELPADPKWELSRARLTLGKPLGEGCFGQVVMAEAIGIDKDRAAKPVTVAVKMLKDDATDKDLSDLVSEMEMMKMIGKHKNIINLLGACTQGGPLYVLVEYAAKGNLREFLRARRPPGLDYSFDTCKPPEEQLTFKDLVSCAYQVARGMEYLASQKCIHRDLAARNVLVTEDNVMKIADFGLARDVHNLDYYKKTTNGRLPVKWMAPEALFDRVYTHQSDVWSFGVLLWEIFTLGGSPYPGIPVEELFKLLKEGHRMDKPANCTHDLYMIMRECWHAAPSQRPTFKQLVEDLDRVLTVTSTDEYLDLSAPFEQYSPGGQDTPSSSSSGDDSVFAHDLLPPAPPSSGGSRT
Sequence of FGFR3-BAIAP2L1 Ba/F3 cells (P22607 23-806 limits assumed, change not shown): as the sequence (P22607 23-806) above
Sequence of FGFR3 (V555M) (P22607 23-806 V555M): as the sequence (P22607 23-806) above, with V533M counted along it

| SMILES | Kd (FGFR4) | Kd (FGFR1) | Kd (FGFR3) | Kd (FGFR2) | Kd (FGFR3 (V555M)) | Ba/F3 FGFR1/FGFR3 Selectivity [1] | IC50 [1] | IC50 (FGFR1-BCR Ba/F3 cells) |
| --- | --- | --- | --- | --- | --- | --- | --- | --- |
| COC(=O)N1CCN(c2ccc(-c3n[nH]c4ccc(O[C@H](C)c5c(Cl)cncc5Cl)cc34)cn2)CC1 [Example 7, Methyl 4-[5-[5-[(1R)-1-(3,5-dichloro-4-pyridyl)ethoxy]-1H-indazol-3-yl]-2-pyridyl]piperazine-1-carboxylate] | 1 to 20 nM | 1 to 20 nM | 1 to 20 nM | 20 to 100 nM | 1 to 20 nM | 15 | 20 to 100 nM | > 300 nM |
| C[C@@H](Oc1ccc2[nH]nc(-c3ccc(Cl)nc3)c2c1)c1c(Cl)cncc1Cl [Example 18, 3-(6-Chloro-3-pyridyl)-5-[(1R)-1-(3,5-dichloro-4-pyridyl)ethoxy]-1H-indazole] | 1 to 20 nM | 20 to 100 nM | 1 to 20 nM | 20 to 100 nM | 1 to 20 nM | 21 | 20 to 100 nM | > 300 nM |
| C[C@@H](Oc1ccc2[nH]nc(-c3ccc(F)nc3)c2c1)c1c(Cl)cncc1Cl [Example 25, 5-[(1R)-1-(3,5-Dichloro-4-pyridyl)ethoxy]-3-(6-fluoro-3-pyridyl)-1H-indazole] | 20 to 100 nM | 20 to 100 nM | 1 to 20 nM | 20 to 100 nM | 1 to 20 nM | 22 | 20 to 100 nM | > 300 nM |
| C[C@@H](Oc1ccc2[nH]nc(-c3ccc(N4CCCNC(=O)C4)nc3)c2c1)c1c(Cl)cncc1Cl [Example 35, 4-[5-[5-[(1R)-1-(3,5-dichloro-4-pyridyl)ethoxy]-1H-indazol-3-yl]-2-pyridyl]-1,4-diazepan-2-one] | 1 to 20 nM | 20 to 100 nM | 1 to 20 nM | 20 to 100 nM | 1 to 20 nM | 6 | 20 to 100 nM | > 300 nM |
| C[C@@H](Oc1ccc2[nH]nc(-c3ccc(N4CCNC(=O)C4)nc3)c2c1)c1c(Cl)cncc1Cl [Example 36, 4-[5-[5-[(1R)-1-(3,5-dichloro-4-pyridyl)ethoxy]-1H-indazol-3-yl]-2-pyridyl]piperazin-2-one] | 1 to 20 nM | 1 to 20 nM | 1 to 20 nM | 1 to 20 nM | 1 to 20 nM | 23 | 1 to 20 nM | 20 to 100 nM |
| C[C@@H](Oc1ccc2[nH]nc(-c3ccc(N4CCNCC4=O)nc3)c2c1)c1c(Cl)cncc1Cl [Example 37, 1-[5-[5-[(1R)-1-(3,5-dichloro-4-pyridyl)ethoxy]-1H-indazol-3-yl]-2-pyridyl]piperazin-2-one] | 1 to 20 nM | 20 to 100 nM | 1 to 20 nM | 20 to 100 nM | 1 to 20 nM | 12 | 1 to 20 nM | 100 to 300 nM |
| C[C@@H](Oc1ccc2[nH]nc(-c3ccc(N4CCN(C)CC4=O)nc3)c2c1)c1c(Cl)cncc1Cl [Example 38, 1-[5-[5-[(1R)-1-(3,5-dichloro-4-pyridyl)ethoxy]-1H-indazol-3-yl]-2-pyridyl]-4-methyl-piperazin-2-one] | 1 to 20 nM | 20 to 100 nM | 1 to 20 nM | 20 to 100 nM | 1 to 20 nM | 21 | 1 to 20 nM | 100 to 300 nM |
| C[C@@H](Oc1ccc2[nH]nc(-c3ccc(N4CCN(S(C)(=O)=O)CC4=O)nc3)c2c1)c1c(Cl)cncc1Cl [Example 39, 1-[5-[5-[(1R)-1-(3,5-dichloro-4-pyridyl)ethoxy]-1H-indazol-3-yl]-2-pyridyl]-4-methylsulfonyl-piperazin-2-one] | 1 to 20 nM | 20 to 100 nM | 1 to 20 nM | 20 to 100 nM | 1 to 20 nM | 16 | 1 to 20 nM | 100 to 300 nM |
| C[C@@H](Oc1cc2c(-c3cnc(N4CC5(CCS(=O)(=O)C5)C4)c(C#N)c3)n[nH]c2cc1F)c1c(Cl)cncc1Cl [Example 378, 5-[5-[(1R)-1-(3,5-dichloro-4-pyridyl)ethoxy]-6-fluoro-1H-indazol-3-yl]-2-(6,6-dioxo-6λ^6-thia-2-azaspiro[3.4]octan-2-yl)pyridine-3-carbonitrile] | 1 to 20 nM | 100 to 300 nM | 1 to 20 nM | 20 to 100 nM | 1 to 20 nM | – | – | – |
| Cc1ncc(Cl)c([C@@H](C)Oc2cc3c(-c4cnc(N5CC6(C5)CN(S(C)(=O)=O)C6)c(C#N)c4)n[nH]c3cc2F)c1Cl [Example 379, 5-[5-[(1R)-1-(3,5-dichloro-2-methyl-4-pyridyl)ethoxy]-6-fluoro-1H-indazol-3-yl]-2-(2-methylsulfonyl-2,6-diazaspiro[3.3]heptan-6-yl)pyridine-3-carbonitrile] | 1 to 20 nM | 100 to 300 nM | 20 to 100 nM | 100 to 300 nM | 1 to 20 nM | – | – | – |

Further lines, with some results ahead:

| Kd (FGFR4) | Kd (FGFR1) | Kd (FGFR3) | Kd (FGFR2) | Kd (FGFR3 (V555M)) | SMILES | Ba/F3 FGFR1/FGFR3 Selectivity [1] | IC50 [1] | IC50 (FGFR1-BCR Ba/F3 cells) |
| --- | --- | --- | --- | --- | --- | --- | --- | --- |
| 100 to 300 nM | > 300 nM | > 300 nM | > 300 nM | > 300 nM | C[C@@H](Oc1cc2c(-c3cnc(N4CC(C)(C)C4)c(CN(C)C)c3)n[nH]c2cc1Cl)c1c(Cl)cncc1Cl [Example 371, (R)-1-(5-(6-chloro-5-(1-(3,5-dichloropyridin-4-yl)ethoxy)-1H-indazol-3-yl)-2-(3,3-dimethylazetidin-1-yl)pyridin-3-yl)-N,N-dimethylmethanamine] | – | – | – |
| 1 to 20 nM | 100 to 300 nM | 20 to 100 nM | 100 to 300 nM | 1 to 20 nM | COc1cc2[nH]nc(-c3cnc(N4CC[C@H]4C)c(S(C)(=O)=O)c3)c2cc1O[C@H](C)c1c(Cl)cncc1Cl [Example 372, 5-((R)-1-(3,5-dichloropyridin-4-yl)ethoxy)-6-methoxy-3-(6-((R)-2-methylazetidin-1-yl)-5-(methylsulfonyl)pyridin-3-yl)-1H-indazole] | – | – | – |
| 20 to 100 nM | > 300 nM | 100 to 300 nM | > 300 nM | 20 to 100 nM | C[C@@H]1CCN1c1ncc(-c2n[nH]c3cc(Cl)c(O[C@H](C)c4c(Cl)cncc4Cl)cc23)cc1C#N [Example 374, 5-(6-chloro-5-((R)-1-(3,5-dichloropyridin-4-yl)ethoxy)-1H-indazol-3-yl)-2-((R)-2-methylazetidin-1-yl)nicotinonitrile] | – | – | – |
| 1 to 20 nM | > 300 nM | 100 to 300 nM | > 300 nM | 20 to 100 nM | COc1cc2[nH]nc(-c3cnc(N4CC[C@@H]4C)c(S(C)(=O)=O)c3)c2cc1O[C@H](C)c1c(Cl)cncc1Cl [Example 375, 5-((R)-1-(3,5-dichloropyridin-4-yl)ethoxy)-6-methoxy-3-(6-((S)-2-methylazetidin-1-yl)-5-(methylsulfonyl)pyridin-3-yl)-1H-indazole] | – | – | – |
| 1 to 20 nM | > 300 nM | 20 to 100 nM | 100 to 300 nM | 20 to 100 nM | COc1cc2[nH]nc(-c3cnc(N4CC(C)(C)C4)c(S(C)(=O)=O)c3)c2cc1O[C@H](C)c1c(Cl)cncc1Cl [Example 376, (R)-5-(1-(3,5-dichloropyridin-4-yl)ethoxy)-3-(6-(3,3-dimethylazetidin-1-yl)-5-(methylsulfonyl)pyridin-3-yl)-6-methoxy-1H-indazole] | – | – | – |
| 1 to 20 nM | > 300 nM | 100 to 300 nM | > 300 nM | 20 to 100 nM | C[C@@H](Oc1cc2c(-c3cnc(N4CCC4)c(C#N)c3)n[nH]c2cc1Cl)c1c(Cl)cncc1Cl [Example 377, 2-(azetidin-1-yl)-5-[6-chloro-5-[(1R)-1-(3,5-dichloro-4-pyridyl)ethoxy]-1H-indazol-3-yl]pyridine-3-carbonitrile] | – | – | – |
| 1 to 20 nM | 100 to 300 nM | 20 to 100 nM | > 300 nM | 20 to 100 nM | C[C@@H](Oc1cc2c(-c3cnc(N4CC5(CCCN(S(C)(=O)=O)C5)C4)c(C#N)c3)n[nH]c2cc1F)c1c(Cl)cncc1Cl [Example 380, 5-[5-[(1R)-1-(3,5-dichloro-4-pyridyl)ethoxy]-6-fluoro-1H-indazol-3-yl]-2-(8-methylsulfonyl-2,8-diazaspiro[3.5]nonan-2-yl)pyridine-3-carbonitrile] | – | – | – |
